Consider one compound from PubChem BioAssay AID504497 (Sanford-Burnham Center for Chemical Genomics, 2011).

This experiment has as its target Sentrin-specific protease 7 (Homo sapiens) (UniProt Q9BQF6). Put plainly: SENP7 protease inhibitors, SAR follow-up, biochemical, luminescence (AID 504497). The following applies: recombinant SENP7, Z-RLRGG-aminoluciferin luminescence.

Sentrin-specific protease 7 (Homo sapiens), sequence (Q9BQF6 706-1050 limits assumed): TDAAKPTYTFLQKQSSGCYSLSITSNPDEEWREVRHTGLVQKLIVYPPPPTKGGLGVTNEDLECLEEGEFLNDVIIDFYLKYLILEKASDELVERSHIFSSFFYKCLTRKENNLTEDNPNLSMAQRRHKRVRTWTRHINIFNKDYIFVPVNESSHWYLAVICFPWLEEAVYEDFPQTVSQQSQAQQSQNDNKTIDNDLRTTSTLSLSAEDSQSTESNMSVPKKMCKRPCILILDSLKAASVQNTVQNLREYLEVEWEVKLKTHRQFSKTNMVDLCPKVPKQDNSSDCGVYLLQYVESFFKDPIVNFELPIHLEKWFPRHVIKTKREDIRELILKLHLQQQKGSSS

For the compound `N#Cc1c(NC(=O)CSc2ncn[nH]2)sc2c1CCCCC2`, the IC50 (in general, the point on the concentration scale where inhibition reaches its midpoint) was 5.66 µM.
